Source: patent US20260070922A1, “PYRAZOLE AND IMIDAZOLE DERIVATIVES AS DUAL OREXIN AND KAPPA-OPIOID RECEPTORS MODULATORS COMPOSITION, METHODS FOR TREATING NEUROLOGICAL AND PSYCHIATRIC DISORDERS” (HAGER BIOSCIENCES, LLC, priority 2022, published 2026)

Key:
[1] = target: T1, human orexin-2 receptor (OX2R) (Homo sapiens, UniProt O43614); assay: In vitro orexin antagonism assay: intracellular calcium measurement (FLIPR), orexin-A 3 nM as agonist; assay type: cell-based; settings: for inhibition at 1 µM: read-out: OX2R, % Inh. @ 1 uM
T1 construct: expressed in transfected cells; host or cells: CHO cells (G418 selection)
T1 sequence (O43614 1-444): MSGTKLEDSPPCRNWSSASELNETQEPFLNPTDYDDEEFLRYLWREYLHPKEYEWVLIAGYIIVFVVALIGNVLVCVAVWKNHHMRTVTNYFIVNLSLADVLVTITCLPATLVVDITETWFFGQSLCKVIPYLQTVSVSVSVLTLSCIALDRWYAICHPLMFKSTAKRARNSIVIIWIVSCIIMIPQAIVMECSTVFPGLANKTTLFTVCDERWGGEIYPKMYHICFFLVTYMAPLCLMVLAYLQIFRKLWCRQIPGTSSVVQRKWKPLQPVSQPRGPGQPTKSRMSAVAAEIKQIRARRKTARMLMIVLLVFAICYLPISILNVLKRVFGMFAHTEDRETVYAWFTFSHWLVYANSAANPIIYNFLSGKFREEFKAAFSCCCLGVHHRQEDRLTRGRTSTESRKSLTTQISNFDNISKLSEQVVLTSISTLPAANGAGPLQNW
How it was run: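 CHO cells stably expressing human OX1R or OX2R, loaded with fluo-4 AM (3 μM, 5 mM probenecid) for 50 min at 37 °C, then 30 min at RT. Antagonist preincubated 120 min before 3 nM orexin-A; FLIPR fluorescence peak height vs vehicle gives IC50, possibly normalized to on-plate reference; geometric mean of repeats.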

[2] = target: T2, Orexin type 1 (OX1R) receptor (Homo sapiens, UniProt O43613); assay: as above; assay type: cell-based; settings: for IC50: first value of IC50/Kb cell; for inhibition at 1 µM: read-out: OX1R, % Inh. @ 1 uM; for Kb: second value of IC50/Kb cell
T2 construct: expressed in transfected cells; host or cells: CHO cells (G418 selection)
T2 sequence (O43613 1-425): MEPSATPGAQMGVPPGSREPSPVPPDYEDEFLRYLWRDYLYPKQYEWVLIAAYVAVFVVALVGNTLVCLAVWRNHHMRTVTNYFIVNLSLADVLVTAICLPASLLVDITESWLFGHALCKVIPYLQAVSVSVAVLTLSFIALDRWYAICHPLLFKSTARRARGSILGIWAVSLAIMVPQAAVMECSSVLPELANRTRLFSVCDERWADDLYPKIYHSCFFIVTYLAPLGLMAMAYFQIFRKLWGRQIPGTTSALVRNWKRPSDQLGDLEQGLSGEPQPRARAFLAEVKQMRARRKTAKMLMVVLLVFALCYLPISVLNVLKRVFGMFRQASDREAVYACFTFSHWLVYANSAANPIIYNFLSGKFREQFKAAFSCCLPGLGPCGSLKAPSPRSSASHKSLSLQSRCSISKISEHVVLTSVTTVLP
How it was run: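 CHO cells expressing the human orexin receptor were loaded with 3 μM fluo-4 AM plus 5 mM probenecid, then exposed to antagonist for 120 min before 3 nM orexin-A (final) was added on a FLIPR.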

Row | SMILES | inhibition at 1 µM [1] [%] | IC50 [2] [nM] | inhibition at 1 µM [2] [%] | Kb [2] [nM] | OX2R, % Inh. @ 1 uM [1] [%] | OX1R, % Inh. @ 1 uM [2] [%]
1 | O=C(c1nc2ccccn2c1-c1ccccn1)N1CCC[C@H]1Cn1ccc(-c2ccc(F)cn2)n1 [Example 207] | 0 | 30 | 99 | 6 | – | –
2 | O=C(c1nc2ccccn2c1-c1ccccn1)N1CCC[C@H]1Cc1nc(-c2ccccn2)no1 [Example 209] | 4 | 300 | 75 | 63 | – | –
3 | O=C(c1nc2ccccn2c1-c1ccccn1)N1CCC[C@H]1Cc1nc(-c2ccc(F)cn2)no1 [Example 210] | 12 | 190 | 85 | 40 | – | –
4 | O=C(c1nn2c(c1-c1ccccn1)COCC2)N1CCC[C@H]1Cn1ccc(-c2ccccn2)n1 [Example 211] | 28 | 19 | 100 | 4 | – | –
5 | O=C(c1nn2c(c1-c1ccccn1)COCC2)N1CCC[C@H]1Cn1ccc(-c2ccc(F)cn2)n1 [Example 212] | – | 35 | – | 7 | 46 | 96
6 | O=C(c1nn2c(c1-c1ccccn1)COCC2)N1CCC[C@H]1Cn1cc(-c2ccccn2)cn1 [Example 213] | 33 | 220 | 77 | 47 | – | –
7 | O=C(c1nn2c(c1-c1ccccn1)COCC2)N1CCC[C@H]1Cn1cc(-c2ccc(F)cn2)cn1 [Example 214] | 32 | – | 66 | – | – | –
8 | O=C(c1nc2n(c1-c1ccccn1)CCOC2)N1CCC[C@H]1Cn1ccc(-c2ccccn2)n1 [Example 215] | 12 | – | 64 | – | – | –
9 | O=C(c1nc2n(c1-c1ccccn1)CCOC2)N1CCC[C@H]1Cn1ccc(-c2ccc(F)cn2)n1 [Example 216] | 24 | 160 | 70 | 34 | – | –
10 | O=C(c1nc2n(c1-c1ccccn1)CCOC2)N1CCC[C@H]1Cn1cc(-c2ccccn2)cn1 [Example 217] | 57 | 210 | 76 | 45 | – | –
11 | O=C(c1nc2n(c1-c1ccccn1)CCOC2)N1CCC[C@H]1Cn1cc(-c2ccc(F)cn2)cn1 [Example 218] | 74 | 120 | 79 | 25 | – | –
12 | O=C(c1nc2n(c1-c1ccccn1)CCOC2)N1CCC[C@H]1Cc1nc(-c2ccccn2)no1 [Example 219] | 0 | – | 25 | – | – | –
13 | O=C(c1nc2n(c1-c1ccccn1)CCOC2)N1CCC[C@H]1Cc1nc(-c2ccc(F)cn2)no1 [Example 220] | 0 | – | 21 | – | – | –
14 | O=C(c1nn2c(c1-c1ccccn1)CCOC2)N1CCC[C@H]1Cc1nc(-c2ccccn2)no1 [Example 221] | 0 | – | 56 | – | – | –
15 | O=C(c1nn2c(c1-c1ccccn1)CCOC2)N1CCC[C@H]1Cc1nc(-c2ccc(F)cn2)no1 [Example 222] | 12 | – | 55 | – | – | –
16 | O=C(c1nn2c(c1-c1ccccn1)COCC2)N1CCC[C@H]1COc1ccc(C(F)(F)F)cn1 [Example 223] | – | 5 | – | 1 | 21 | 97
